Test results as given in paper PMC6142817, “New Urea Derivatives Are Effective Anti-senescence Compounds Acting Most Likely via a Cytokinin-Independent Mechanism” (Frontiers in Plant Science, 2018).
Read-outs that look alike come from different tables or passages of the source.

Columns and labels:
[1] = tested on: Amaranthus caudatus cotyledon-hypocotyl explants; test: Amaranthus bioassay (betacyanin synthesis); type: cell-based, Amaranthus caudatus var. atropurpurea; details: betacyanin synthesis, N.A. = not active; for EC50: read-out: Amaranthus bioassay (EC50)
Procedure: (§1) Tobacco callus, Amaranthus and Wheat leaf senescence assay (WLSA) were performed as described by Holub et al. ([1998]) including the number of repetitions in each assay. An exception to the published protocols was that the tobacco callus assay was performed in 6-well microtiter plates (with each well containing 3 ml of Murashige Skoog medium into which 0.1 g of callus was added). Each compound was tested at least twice in each assay and in a wider concentration range to obtain concentration-dependent activity curves. IC50 means compound concentration at which chlorophyll degradation is inhibited by 50% and EC50 means half the maximal effective concentration.
(§2) Amaranthus assay evaluates the induction of betacyanin synthesis in Amaranthus (Amaranthus caudatus var. atropurpurea) cotyledons, which is induced by cytokinins (Bamberger and Mayer, [1960]). The WLSA evaluates the ability of compounds to retard chlorophyll degradation in excised wheat leaves that are kept in the dark. The wheat leaf segments (Triticum aestivum cv. Hereward) were used in all other experiments requiring wheat. Arabidopsis (Arabidopsis thaliana) leaf senescence assay was performed with detached leaves from 30-day-old plants, which were grown in soil in phytotron under standard conditions (Rivero et al., [2014]). Four leaves of a combined weight of 60 mg were placed in a six-well plate and stored in the dark for 12 days at 22°C. The leaves (except the fresh control leaves) floated on water solutions of tested compounds. Fresh control leaves were leaves detached from a plant and immediately used for chlorophyll determination. The duration of the senescence assay of Arabidopsis leaves was prolonged to highlight the difference in chlorophyll content between a negative control and treatments. Arabidopsis leaves were losing chlorophyll more slowly than wheat leaves. Chlorophyll extraction and spectrophotometric determination of its content was done according to Holub et al. ([1998]).

ARR5:GUS reporter gene = test: Arabidopsis ARR5:GUS reporter gene assay; type: in vivo, Arabidopsis thaliana; details: for EC50: Arabidopsis thaliana, transgenic Arabidopsis plants, read-out: ARR5:GUS activation EC50
Procedure: Transgenic Arabidopsis plants (Arabidopsis thaliana (L.) Heynh. accession Wassilewskija) harboring the GUS reporter gene (gene for β-glucuronidase) fused to 1.6 kb of the ARR5 (PARR5−GUS) gene promoter (D'Agostino et al., [2000]) were kindly provided by professor Thomas Schmülling. The assay was performed according to Romanov et al. ([2002]). β-Glucuronidase (GUS) activity was quantitatively determined by measuring fluorescence of 4-methylumbelliferyl (MU) on a Synergy H4 hybrid reader (Biotek, Winooski, VT) with excitation and emission wavelengths of 365 and 445 nm, respectively. GUS specific activity was determined as nmol MU × mg protein^−1 × h^−1. This was calculated by dividing the relative fluorescence units (obtained per hour) by protein content of the same sample. Protein extraction was done as described by Romanov et al. ([2002]) but its content was determined using a bicinchoninic acid reagent (Smith et al., [1985]). Finally we expressed the GUS activity in samples as a relative percentage, the activity of 1 μM BA being set as 100% activation. The concentration-dependent activity curves and EC50 values (for TDZ, tZ, BA, TD-iP, and TD-tZ) were constructed using Scion image program.

[2] = tested on: excised wheat leaves (chlorophyll degradation in the dark); test: Wheat leaf senescence assay (WLSA); type: cell-based, Triticum aestivum cv. Hereward; details: for IC50: detached wheat leaves in the dark, 5 days, concentration at which chlorophyll degradation is inhibited by 50%, read-out: Senescence bioassay (IC50)
Procedure: as §1, §2

[3] = tested on: cytokinin-dependent tobacco callus; test: Tobacco callus bioassay; type: cell-based; details: for Tobacco callus bioassay (EC50, μM) / EC50: half the maximal effective concentration, N.A. = not active; for EC50: read-out: Tobacco callus bioassay (EC50)
Procedure: as §1

AHK3 = target: T1, AHK3 (Arabidopsis thaliana, UniProt Q9C5U1); test: Cytokinin receptor activation assay in E. coli (AHK3); type: cell-based; details: E. coli bacterial receptor assay; read-out: AHK3 receptor activation EC50
T1 construct: expressed in transfected cells; host or cells: Escherichia coli strain KMI001, plasmid pSTV28-AHK3
T1 sequence (Q9C5U1 1-1036): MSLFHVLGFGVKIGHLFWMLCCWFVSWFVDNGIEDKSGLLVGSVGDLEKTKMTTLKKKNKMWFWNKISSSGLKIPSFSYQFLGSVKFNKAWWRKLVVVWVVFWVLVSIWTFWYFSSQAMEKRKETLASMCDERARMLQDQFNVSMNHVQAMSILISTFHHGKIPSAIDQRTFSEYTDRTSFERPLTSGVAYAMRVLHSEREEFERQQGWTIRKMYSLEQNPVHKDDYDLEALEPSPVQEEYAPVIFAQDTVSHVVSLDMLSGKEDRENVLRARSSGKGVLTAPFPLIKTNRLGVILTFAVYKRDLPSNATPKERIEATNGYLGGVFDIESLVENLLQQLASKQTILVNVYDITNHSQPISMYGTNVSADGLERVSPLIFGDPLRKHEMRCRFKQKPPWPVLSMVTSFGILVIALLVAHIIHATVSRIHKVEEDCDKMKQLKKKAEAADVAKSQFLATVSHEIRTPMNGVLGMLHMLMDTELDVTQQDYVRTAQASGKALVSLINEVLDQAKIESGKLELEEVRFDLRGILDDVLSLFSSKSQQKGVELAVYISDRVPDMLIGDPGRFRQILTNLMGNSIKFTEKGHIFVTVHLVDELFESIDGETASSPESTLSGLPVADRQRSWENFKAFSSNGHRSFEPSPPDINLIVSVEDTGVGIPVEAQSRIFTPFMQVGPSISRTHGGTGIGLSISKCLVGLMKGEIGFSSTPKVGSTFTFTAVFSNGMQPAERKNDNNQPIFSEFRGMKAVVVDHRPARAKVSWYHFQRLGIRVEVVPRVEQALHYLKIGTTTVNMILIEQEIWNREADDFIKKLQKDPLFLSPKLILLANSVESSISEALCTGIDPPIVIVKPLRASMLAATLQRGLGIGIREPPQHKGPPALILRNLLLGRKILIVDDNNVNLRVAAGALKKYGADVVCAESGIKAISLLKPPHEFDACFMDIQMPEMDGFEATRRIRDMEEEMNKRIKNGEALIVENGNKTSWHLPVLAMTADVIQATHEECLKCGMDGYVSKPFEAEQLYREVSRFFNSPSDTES
Description: (§3) The activity of this enzyme is finally measured in the assay and corresponds to the ability of the tested compound to activate this cytokinin receptor. Both assays were done at least twice and the presented graphs are the most representative examples.

CRE1/AHK4 = CRE1/AHK4 (Arabidopsis thaliana, UniProt Q9C5U0); test: Cytokinin receptor activation assay in E. coli (CRE1/AHK4); type: cell-based; parameters: expressed in transfected cells; host or cells: Escherichia coli strain KMI001, plasmid pIN-IIIAHK4; details: E. coli bacterial receptor assay; read-out: CRE1/AHK4 receptor activation EC50
Chain of CRE1/AHK4 (Q9C5U0 whole entry): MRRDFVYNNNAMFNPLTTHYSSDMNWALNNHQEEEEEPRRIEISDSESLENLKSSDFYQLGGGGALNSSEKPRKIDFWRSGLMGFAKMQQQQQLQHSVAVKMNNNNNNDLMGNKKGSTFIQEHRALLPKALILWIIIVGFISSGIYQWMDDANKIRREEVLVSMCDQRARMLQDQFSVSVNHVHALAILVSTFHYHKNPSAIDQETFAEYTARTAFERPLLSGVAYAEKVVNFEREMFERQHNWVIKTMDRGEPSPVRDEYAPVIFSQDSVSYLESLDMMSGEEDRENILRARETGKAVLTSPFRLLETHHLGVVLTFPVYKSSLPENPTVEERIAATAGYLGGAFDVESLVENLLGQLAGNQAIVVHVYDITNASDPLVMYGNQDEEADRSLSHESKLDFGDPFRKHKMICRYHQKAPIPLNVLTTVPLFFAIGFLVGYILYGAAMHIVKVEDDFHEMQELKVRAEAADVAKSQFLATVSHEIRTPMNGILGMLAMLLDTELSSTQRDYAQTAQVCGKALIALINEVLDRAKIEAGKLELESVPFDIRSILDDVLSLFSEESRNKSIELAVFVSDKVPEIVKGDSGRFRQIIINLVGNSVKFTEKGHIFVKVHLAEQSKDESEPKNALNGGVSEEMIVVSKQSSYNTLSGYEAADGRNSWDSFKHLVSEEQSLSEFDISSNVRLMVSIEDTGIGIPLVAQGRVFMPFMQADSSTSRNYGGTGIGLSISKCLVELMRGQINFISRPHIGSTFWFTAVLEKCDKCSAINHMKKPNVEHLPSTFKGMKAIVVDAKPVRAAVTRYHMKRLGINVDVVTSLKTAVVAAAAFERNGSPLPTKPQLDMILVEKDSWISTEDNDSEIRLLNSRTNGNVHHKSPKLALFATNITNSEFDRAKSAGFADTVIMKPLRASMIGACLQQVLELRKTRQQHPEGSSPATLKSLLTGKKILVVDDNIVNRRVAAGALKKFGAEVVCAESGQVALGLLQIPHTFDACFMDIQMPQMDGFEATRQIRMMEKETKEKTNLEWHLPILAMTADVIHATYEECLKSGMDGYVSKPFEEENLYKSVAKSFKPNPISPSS
Description: as §3

[4] = tested on: detached Arabidopsis leaves (chlorophyll loss in the dark); test: Arabidopsis leaf senescence assay; type: cell-based, Arabidopsis thaliana; details: 1 μM, 12 days in the dark
Description: as §2

[5] = tested on: excised wheat leaves (chlorophyll degradation in the dark); details: read-out: WLSA IC50; ref Gajdošová et al., [2011]; cited from earlier work

For `CCOCCNC(=O)Nc1cnns1` [Compound 11], the EC50 ([1]; Amaranthus caudatus) was over 100 µM, the “ARR5:GUS activation (in words)” value (ARR5:GUS reporter gene; in vivo) was “completely inactive” and the IC50 ([2]; Triticum aestivum, 120 h) was 83 µM. For the same molecule, the “Tobacco callus bioassay (EC50, μM)” value [3] was “completely inactive”.

`C#CCNC(=O)Nc1cnns1` [Compound 12] gave an EC50 ([1]; Amaranthus caudatus) of 15.3 µM, an IC50 ([2]; Triticum aestivum, 120 h) of 17 µM and an EC50 ([3]; Nicotiana tabacum) of 2.4 µM.

For `COCCN(C)C(=O)Nc1cnns1` [Compound 6], the “Amaranthus bioassay (EC50, μM)” value [1] was “inactive”, the IC50 ([2]; Triticum aestivum, 120 h) was 25 µM and the “Tobacco callus bioassay (EC50, μM)” value [3] was “completely inactive”.

For `O=C(NCCO)Nc1cnns1` [Compound 1], the “Amaranthus bioassay (EC50, μM)” value [1] was “inactive”, the IC50 ([2]; Triticum aestivum, 120 h) was 26 µM and the EC50 ([3]; Nicotiana tabacum) was 15 µM.

With `CC(CO)CCNc1ncnc2nc[nH]c12` (centres unmarked) [DHZ, dihydrozeatin, reference compound] the EC50 ([1]; Amaranthus caudatus) was 10 µM, the IC50 ([2]; Triticum aestivum, 120 h) was over 100 µM and the EC50 ([3]; Nicotiana tabacum) was 0.065 µM.

Work on `CC(C)=CCNC(=O)Nc1cnns1` [TD-iP, N-2-isopentenyl-N′-1,2,3-thiadiazol-5-yl-urea] yielded an EC50 ([1]; Amaranthus caudatus) of 1.1 µM, an EC50 (ARR5:GUS reporter gene) of 0.065 µM and an EC50 (AHK3) of 1.4 µM. The IC50 ([2]; Triticum aestivum, 120 h) was 93 µM, the EC50 (CRE1/AHK4) was 9.4 µM and the “inhibition of callus growth at the highest concentration tested” value ([3]; 100 μM) was “did not inhibit the growth of callus”. It also gave an EC50 ([3]; Nicotiana tabacum) of 0.017 µM.

For `c1ccc(CNc2ncnc3nc[nH]c23)cc1` [BA, N^6-benzyladenine, reference compound], the EC50 ([1]; Amaranthus caudatus) was 0.75 µM, the EC50 (ARR5:GUS reporter gene) was 0.076 µM and the IC50 ([2]; Triticum aestivum, 120 h) was over 100 µM. For the same molecule, the “% more of chlorophyll retained than DMSO (negative control)” value [4] was 65% and the EC50 ([3]; Nicotiana tabacum) was 0.06 µM.

`COCC(C)NC(=O)Nc1cnns1` (centres unmarked) [Compound 10] gave an EC50 ([1]; Amaranthus caudatus) of 26.5 µM, an IC50 ([2]; Triticum aestivum, 120 h) of under 10 µM and an IC50 [2] of 8.6 µM. For the same molecule, the EC50 ([3]; Nicotiana tabacum) was 3.1 µM.

For `COC(CNC(=O)Nc1cnns1)OC` [Compound 8], the EC50 ([1]; Amaranthus caudatus) was 16.7 µM, the “ARR5:GUS activity, % of BA activity” value (ARR5:GUS reporter gene; compound at 10 μM, 1 μM BA = 100%) was 55–65% and the EC50 ([3]; Nicotiana tabacum) was 2.4 µM.

For `C/C(=C/CNc1ncnc2nc[nH]c12)CO` [cis-zeatin, reference compound], the IC50 [5] is listed as about 300 µM, the “IC50 in WLSA, fold higher than IC50 of ASES” value [2] is listed as 300 fold and the “IC50 in WLSA, fold higher than IC50 of tZ” value [2] is listed as 10 fold.

With “N^6-isopentenyladenine [iP, reference compound]” the EC50 [1] was 2 µM, the IC50 [2] was over 200 µM and the EC50 [3] was 0.013 µM.
